“And” between values parts separate entries of the source, which are not always exact repeats. Identical values can stand only once.
Columns and labels:
mdx mice = test: Chronic treatment of mdx mice, forelimb grip strength test; format: in vivo, mouse; conditions: Fig 7G, single mice
Description: Fig 7 NBD mimetics improve muscular pathology and grip strength in mdx mice. (A) Shown is the treatment regimen with NBD mimetics in mdx mice. (B) Hematoxylin–eosin staining of TA muscle from 7-wk-old, treated or untreated mdx mice. Images were taken at magnification of 20×. Representative images were shown for each treatment group. […] (E) TA muscle from 7-wk-old, treated or untreated mdx mice was stained with laminin by IHC to outline myofibers. Overall images of TA muscle were shown on the left side, and the inset panel images were shown on the right side. (F) Quantitation of minimum Feret diameter in centrally and noncentrally nucleated myofibers. (G) Forelimb force determined by grip strength test. Five-wk-old (2 wk post treatment) and 7-wk-old (4 wk post treatment) mdx mice, treated or untreated, were tested for forelimb grip strength. Five sequential tests were performed, and the force was normalized to body weight. Data were shown as mean +/− SEM. Dosages used are as follows: SR12343 (30 mg/kg), SR12460 (30 mg/kg), and 8K-NBD peptide (10 mg/kg). n = 6–7 each group. *P < 0.05, **P < 0.01. Underlying data can be found in S1 Data. eMyHC, embryonic myosin heavy chain; IHC, immunohistochemistry; NBD, NEMO-binding domain; NEMO, NF-κB essential modulator; Pax7, paired box protein 7; qRT-PCR, quantitative real-time polymerase chain reaction; TA, tibialis anterior. To determine whether the NBD mimetics improved muscle strength, grip strength was measured 2 wk and 4 wk post treatment to assess forelimb strength (Fig 7G). […] Seven-wk-old treated or untreated mdx mice were measured for forelimb grip strength by using a digital grip strength meter paired with a metal grid (Bioseb, Vitrolles, France). Mice were allowed to grip the metal grid tightly, and readings were obtained by gently pulling the tail backward until release. Five sequential measurements were performed, and the average force was calculated.

[1] = Body weight of chronically treated mdx mice; conditions: in g (unit assumed); for Body weight AVG: group average (FigS3A); for Body weight: individual mouse (FigS3A)

## O=C(CNCCc1cc(F)cc(F)c1)Nc1ccc(Cl)cn1 [SR12460]
Mdx mice; 2 week post treatment
  Forelimb grip strength, force normalized to body weight: 5.738 and 3.226 and 3.35
Mdx mice; 4 week post treatment
  Forelimb grip strength, force normalized to body weight: 5.455 and 4.515 and 5.487 and 3.928 and 4.07 and 4.448
[1]; Day 21
  Body weight AVG: 8.34
  Body weight: 8.5 and 8.8 and 6.9 and 9
[1]; Day 23
  Body weight AVG: 9.96
  Body weight: 10.5 and 9.7 and 8.5 and 10.3 and 10.8
[1]; Day 26
  Body weight AVG: 11.42
  Body weight: 12.6 and 10.7 and 10.9 and 11.3 and 11.6
[1]; Day 28
  Body weight AVG: 13.58
  Body weight: 14.1 and 14.6 and 13.2 and 12.6 and 13.4
[1]; Day 30
  Body weight AVG: 14.92
  Body weight: 16.1 and 13.5 and 14.9 and 14.4 and 15.7
[1]; Day 32
  Body weight AVG: 18.56
  Body weight: 20.3 and 16.4 and 20.2 and 18.3 and 17.6
[1]; Day 34
  Body weight AVG: 19.58
  Body weight: 21 and 17.1 and 21.1 and 18.8 and 19.9
[1]; Day 37
  Body weight AVG: 20.22
  Body weight: 22.2 and 18.3 and 19.3 and 19.1
[1]; Day 39
  Body weight AVG: 21.5333
  Body weight: 22.3 and 18.8 and 23.5
[1]; Day 41
  Body weight AVG: 22.4
  Body weight: 23.1 and 19.5 and 24.6
[1]; Day 44
  Body weight AVG: 22.7333
  Body weight: 23.7 and 19.3 and 25.2
[1]; Day 46
  Body weight AVG: 23.7
  Body weight: 25 and 20.1 and 26

## O=C(CNc1ccc(Cl)cn1)NCCc1cccc(Br)c1 [SR12343]
Mdx mice; 2 week post treatment
  Forelimb grip strength, force normalized to body weight: significantly improved forelimb strength
Mdx mice; 2 week post treatment, listed as SR 12343
  Forelimb grip strength, force normalized to body weight: 3.61 and 3.7248 and 3.659 and 4.054
Mdx mice; 4 week post treatment
  Forelimb grip strength, force normalized to body weight: 4.866 and 4.5019 and 4.825 and 4.175 and 4.644 and 3.675 and 4.427
[1]; Day 21
  Body weight AVG: 8.8
  Body weight: 8.1 and 9 and 8.6 and 10 and 8.3
[1]; Day 23
  Body weight AVG: 10.48
  Body weight: 9.5 and 11.4 and 9.8 and 10.7 and 11
[1]; Day 26
  Body weight AVG: 12.2
  Body weight: 10.8 and 13.9 and 12.3 and 11.7
[1]; Day 28
  Body weight AVG: 13.48
  Body weight: 12.7 and 14.8 and 12.2 and 13.2 and 14.5
[1]; Day 30
  Body weight AVG: 15.66
  Body weight: 12.5 and 17.3 and 16.6 and 15.5 and 16.4
[1]; Day 32
  Body weight AVG: 18.96
  Body weight: 16.4 and 21.5 and 20 and 18 and 18.9
[1]; Day 34
  Body weight AVG: 19.78
  Body weight: 16.9 and 22.5 and 20.5 and 19.4 and 19.6
[1]; Day 37
  Body weight AVG: 20.46
  Body weight: 18.3 and 23 and 21.4 and 19.4 and 20.2
[1]; Day 39
  Body weight AVG: 21.7333
  Body weight: 18.2 and 24.1 and 22.9
[1]; Day 41
  Body weight AVG: 22.4
  Body weight: 19.6 and 25 and 22.6
[1]; Day 44
  Body weight AVG: 22.9667
  Body weight: 20 and 24.7 and 24.2
[1]; Day 46
  Body weight AVG: 22.8667
  Body weight: 21 and 24 and 23.6
